Source: patent publication US8247211B2, “Glycopeptide antibiotics” (American Cyanamid Company, priority 2001, dated 2012)

Legend:
Enterococcus sp. = assay: In vitro antibacterial evaluation: minimum inhibitory concentration (MIC), broth dilution method; type: cell-based; details: broth dilution, 5×10^5 CFU/mL, 18 hours at 35° C.
In short: (§1)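 Inoculum: 5×10^5 CFU/mL. Range: 64-0.06 μg/mL. Medium: Muller-Hinton II […]; NCCLS M7-A2 broth dilution. Endpoint: lowest concentration inhibiting growth. Strains include methicillin-, penicillin- and/or vancomycin-resistant clinical isolates.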

Staphylococcus sp. = assay: as above; type: cell-based; details: for MIC Staphylococcus aureus (ATCC 29213): strain ATCC 29213; for MIC Staphylococcus aureus (GC 1131): strain GC 1131; for MIC Staphylococcus aureus (GC 3051): strain GC 3051; for MIC Staphylococcus aureus (GC 3053): strain GC 3053; for MIC Staphylococcus aureus (GC 4541): strain GC 4541; for MIC Staphylococcus aureus (GC 4542): strain GC 4542; for MIC Staphylococcus aureus-SMITH (GC 4543): strain GC 4543; for MIC Staphylococcus aureus (GC 4544): strain GC 4544; for MIC Staphylococcus aureus (GC 4545): strain GC 4545; for MIC Staphylococcus haemolyticus (GC 4546): strain GC 4546; for MIC Coagulase Negative Staphylococcus (GC 4547): strain GC 4547; for MIC Coagulase Negative Staphylococcus (GC 4548): strain GC 4548; for MIC Coagulase Negative Staphylococcus (GC 4549): strain GC 4549; for MIC Coagulase Negative Staphylococcus (GC 4551): strain GC 4551; for MIC Coagulase Negative Staphylococcus (GC 6257): strain GC 6257
In short: as §1

Escherichia coli = assay: as above; type: cell-based; details: 5×10^5 CFU/mL, 18 hours at 35° C.
In short: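 Susceptibility determined by NCCLS-recommended broth dilution (M7-A2), Muller-Hinton II […]. Concentration span 64-0.06 μg/mL, inoculum 5×10^5 CFU/mL. Isolates include strains resistant to methicillin, penicillin and/or vancomycin.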

Streptococcus sp. = assay: as above; type: cell-based; details: broth dilution, 5×10^5 CFU/mL, 18 hours at 35° C.
In short: as §1

[1] = system: Enterococcus faecalis (GC 6189), vancomycin resistant strain; assay: Acute lethal infection in mice (ED50); type: in vivo; details: female CD-1 mice, intraperitoneal challenge, intravenous dose 30 min. after infection, 7 day survival ratios
In short: (§2)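 ED50 derived from pooled 7-day survival in three separate experiments, five mice per dose level. Single intravenous dose 30 min after intraperitoneal infection of female CD-1 mice with enough bacteria to kill untreated animals in 24-48 h.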

[2] = system: Staphylococcus aureus-SMITH (GC 4543); assay: Acute lethal infection in mice (ED50); type: in vivo; details: female CD-1 mice, intraperitoneal challenge, intravenous dose 30 min. after infection, 7 day survival ratios
In short: as §2

[3] = broth dilution, 18 hours at 35° C.

CC(c1ccccc1)C1NC(=O)CNC(=O)C(CO)NC(=O)C(C(O)C2CNC(=N)N2C2OC(CO)C(O)C(O)C2O)NC(=O)C(C(O)C2CNC(=N)N2)NC(=O)C(Cc2ccc(OC3OC(CO)C(OC4OC5COC(C6CC=CCC6)OC5C(O)C4O)C(O)C3O)cc2)NC1=O (stereo not drawn) [Example 115, Cyclo[glycyl-β-methylphenylalanyl-O-[4-O-[4,6-O-(cyclohex-3-en-1-ylmethylene)hexopyranosyl]hexopyranosyl]tyrosyl-3-(2-iminoimidazolidin-4-yl)seryl-3-(3-hexopyranosyl-2-iminoimidazolidin-4-yl)serylseryl]]
1 µg/mL: MIC Staphylococcus aureus (ATCC 29213) (Staphylococcus sp.) | MIC Staphylococcus aureus (ATCC 29213) (Staphylococcus sp.; [3]) | MIC Staphylococcus aureus (GC 1131) (Staphylococcus sp.) | MIC Staphylococcus aureus (GC 1131) (Staphylococcus sp.; [3]) | MIC Staphylococcus aureus (GC 3051) (Staphylococcus sp.) | MIC Staphylococcus aureus (GC 3051) (Staphylococcus sp.; [3]) | MIC Staphylococcus aureus (GC 3053) (Staphylococcus sp.) | MIC Staphylococcus aureus (GC 3053) (Staphylococcus sp.; [3]) | MIC Staphylococcus aureus (GC 4541) (Staphylococcus sp.) | MIC Staphylococcus aureus (GC 4541) (Staphylococcus sp.; [3]) | MIC Staphylococcus aureus-SMITH (GC 4543) (Staphylococcus sp.; 18 hours at 35° C.) | MIC Staphylococcus aureus-SMITH (GC 4543) (Staphylococcus sp.; [3]) | MIC Staphylococcus aureus (GC 4544) (Staphylococcus sp.) | MIC Staphylococcus aureus (GC 4544) (Staphylococcus sp.; [3]) | MIC Coagulase Negative Staphylococcus (GC 4547) (Staphylococcus sp.) | MIC Coagulase Negative Staphylococcus (GC 4547) (Staphylococcus sp.; [3]) | MIC Coagulase Negative Staphylococcus (GC 4549) (Staphylococcus sp.) | MIC Coagulase Negative Staphylococcus (GC 4549) (Staphylococcus sp.; [3]) | MIC Coagulase Negative Staphylococcus (GC 4551) (Staphylococcus sp.) | MIC Coagulase Negative Staphylococcus (GC 4551) (Staphylococcus sp.; [3]) | MIC Escherichia coli (GC 4560) (Escherichia coli)
0.23 mg/kg: median effective dose (ED50), Staphylococcus aureus-SMITH (GC 4543) [2]
0.25 µg/mL: MIC Streptococcus agalactiae (GC 4564) (Streptococcus sp.) | MIC Streptococcus pyogenes (GC 4563) (Streptococcus sp.)
0.36 mg/kg: median effective dose (ED50), Enterococcus faecalis (GC 6189) [1]
4 µg/mL: MIC Enterococccus faecalis (GC 4553) (Enterococcus sp.)
64 µg/mL: MIC Escherichia coli (GC 4559) (Escherichia coli)
0.5 µg/mL: MIC Staphylococcus aureus (GC 4542) (Staphylococcus sp.) | MIC Staphylococcus aureus (GC 4542) (Staphylococcus sp.; [3]) | MIC Staphylococcus aureus (GC 4545) (Staphylococcus sp.) | MIC Staphylococcus aureus (GC 4545) (Staphylococcus sp.; [3]) | MIC Staphylococcus haemolyticus (GC 4546) (Staphylococcus sp.) | MIC Staphylococcus haemolyticus (GC 4546) (Staphylococcus sp.; [3]) | MIC Coagulase Negative Staphylococcus (GC 4548) (Staphylococcus sp.) | MIC Coagulase Negative Staphylococcus (GC 4548) (Staphylococcus sp.; [3]) | MIC Coagulase Negative Staphylococcus (GC 6257) (Staphylococcus sp.) | MIC Coagulase Negative Staphylococcus (GC 6257) (Staphylococcus sp.; [3])
2 µg/mL: MIC Enterococccus avium (GC 4558) (Enterococcus sp.) | MIC Enterococccus faecalis (ATCC 29212) (Enterococcus sp.) | MIC Enterococccus faecalis (GC 2691) (Enterococcus sp.) | MIC Enterococccus faecalis (GC 3059) (Enterococcus sp.) | MIC Enterococccus faecalis (GC 4552) (Enterococcus sp.) | MIC Enterococccus faecalis (GC 4554) (Enterococcus sp.) | MIC Enterococccus faecalis (GC 6189) (Enterococcus sp.) | MIC Enterococccus faecium (GC 2243) (Enterococcus sp.) | MIC Enterococccus faecium (GC 4556) (Enterococcus sp.) | MIC Enterococccus faecium (GC 4557) (Enterococcus sp.) | MIC Enterococcus faecalis (GC 2242) (Enterococcus sp.)
<0.06 µg/mL: MIC Streptococcus pneumoniae (GC 1894) (Streptococcus sp.) | MIC Streptococcus pneumonine (ATCC 6301) (Streptococcus sp.)
0.12 µg/mL: MIC Streptococcus pneumoniae (GC 4565) (Streptococcus sp.)
32 µg/mL: MIC Escherichia coli (ATCC 25922) (Escherichia coli)

Cc1ccc(CC2OCC3OC(OC4C(CO)OC(Oc5ccc(CC6NC(=O)C(C(C)c7ccccc7)NC(=O)CNC(=O)C(CO)NC(=O)C(C(O)C7CNC(=N)N7C7OC(CO)C(O)C(O)C7O)NC(=O)C(C(O)C7CNC(=N)N7)NC6=O)cc5)C(O)C4O)C(O)C(O)C3O2)cc1 (stereo not drawn) [Example 119, Cyclo[glycyl-β-methylphenylalanyl-O-[4-O-[4,6-O-(4-methylphenethylidene)hexopyranosyl]-hexopyranosyl]tyrosyl-3-(2-iminoimidazolidin-4-yl)seryl-3-(3-hexopyranosyl-2-iminoimidazolidin-4-yl)serylseryl]]
<0.5 µg/mL: MIC Coagulase Negative Staphylococcus (GC 6257) (Staphylococcus sp.) | MIC Coagulase Negative Staphylococcus (GC 6257) (Staphylococcus sp.; [3]) | MIC Streptococcus agalactiae (GC 4564) (Streptococcus sp.) | MIC Streptococcus pneumoniae (GC 1894) (Streptococcus sp.) | MIC Streptococcus pneumonine (ATCC 6301) (Streptococcus sp.) | MIC Streptococcus pyogenes (GC 4563) (Streptococcus sp.)
32 µg/mL: MIC Escherichia coli (ATCC 25922) (Escherichia coli) | MIC Escherichia coli (GC 4559) (Escherichia coli)
0.41 mg/kg: median effective dose (ED50), Enterococcus faecalis (GC 6189) [1]
0.19 mg/kg: median effective dose (ED50), Staphylococcus aureus-SMITH (GC 4543) [2]
4 µg/mL: MIC Enterococccus avium (GC 4558) (Enterococcus sp.) | MIC Enterococccus faecalis (GC 4553) (Enterococcus sp.) | MIC Enterococccus faecium (GC 2243) (Enterococcus sp.)
1 µg/mL: MIC Enterococccus faecium (GC 4557) (Enterococcus sp.) | MIC Staphylococcus aureus (ATCC 29213) (Staphylococcus sp.) | MIC Staphylococcus aureus (ATCC 29213) (Staphylococcus sp.; [3]) | MIC Staphylococcus aureus (GC 1131) (Staphylococcus sp.) | MIC Staphylococcus aureus (GC 1131) (Staphylococcus sp.; [3]) | MIC Staphylococcus aureus (GC 3051) (Staphylococcus sp.) | MIC Staphylococcus aureus (GC 3051) (Staphylococcus sp.; [3]) | MIC Staphylococcus aureus (GC 4541) (Staphylococcus sp.) | MIC Staphylococcus aureus (GC 4541) (Staphylococcus sp.; [3]) | MIC Staphylococcus aureus (GC 4542) (Staphylococcus sp.) | MIC Staphylococcus aureus (GC 4542) (Staphylococcus sp.; [3]) | MIC Staphylococcus aureus-SMITH (GC 4543) (Staphylococcus sp.; 18 hours at 35° C.) | MIC Staphylococcus aureus-SMITH (GC 4543) (Staphylococcus sp.; [3]) | MIC Staphylococcus aureus (GC 4544) (Staphylococcus sp.) | MIC Staphylococcus aureus (GC 4544) (Staphylococcus sp.; [3]) | MIC Staphylococcus aureus (GC 4545) (Staphylococcus sp.) | MIC Staphylococcus aureus (GC 4545) (Staphylococcus sp.; [3]) | MIC Staphylococcus haemolyticus (GC 4546) (Staphylococcus sp.) | MIC Staphylococcus haemolyticus (GC 4546) (Staphylococcus sp.; [3]) | MIC Coagulase Negative Staphylococcus (GC 4547) (Staphylococcus sp.) | MIC Coagulase Negative Staphylococcus (GC 4547) (Staphylococcus sp.; [3]) | MIC Coagulase Negative Staphylococcus (GC 4548) (Staphylococcus sp.) | MIC Coagulase Negative Staphylococcus (GC 4548) (Staphylococcus sp.; [3]) | MIC Coagulase Negative Staphylococcus (GC 4549) (Staphylococcus sp.) | MIC Coagulase Negative Staphylococcus (GC 4549) (Staphylococcus sp.; [3]) | MIC Coagulase Negative Staphylococcus (GC 4551) (Staphylococcus sp.) | MIC Coagulase Negative Staphylococcus (GC 4551) (Staphylococcus sp.; [3]) | MIC Escherichia coli (GC 4560) (Escherichia coli) | MIC Streptococcus pneumoniae (GC 4565) (Streptococcus sp.)
>64 µg/mL: MIC Enterococccus faecalis (GC 3059) (Enterococcus sp.)
2 µg/mL: MIC Enterococccus faecalis (ATCC 29212) (Enterococcus sp.) | MIC Enterococccus faecalis (GC 2691) (Enterococcus sp.) | MIC Enterococccus faecalis (GC 4552) (Enterococcus sp.) | MIC Enterococccus faecalis (GC 4554) (Enterococcus sp.) | MIC Enterococccus faecalis (GC 6189) (Enterococcus sp.) | MIC Enterococccus faecium (GC 4556) (Enterococcus sp.) | MIC Enterococcus faecalis (GC 2242) (Enterococcus sp.) | MIC Staphylococcus aureus (GC 3053) (Staphylococcus sp.) | MIC Staphylococcus aureus (GC 3053) (Staphylococcus sp.; [3])
